{"source": "patent US20150258168A1", "about": "“MODULATION OF PODOPLANIN MEDIATED PLATELET ACTIVATION” (OKLAHOMA MEDICAL RESEARCH FOUNDATION, priority 2012, published 2015)", "test_system": "NE-Pdpn^−/− mice", "assay": "tMCAO-induced ischemia/reperfusion, brain bleeding and Evans blue leakage", "type": "in vivo", "conditions": "NE-Pdpn^−/− mice after tMCAO (1.5 hr ischemia and 24 hr reperfusion), 100 mg/kg body weight, i.p., n=2/group, pilot experiment", "description": "FIG. 12. […] Gross images of cronal sections of NE− Pdpn^−/− brains. The mice (6-wks-old) were treated either with SEW2871 or DMSO (solvent of SEW2871) immediately after reperfusion. 24 hrs after the reperfusion, mice were intravenously injected with Evans blue, sacrificed and immediately perfused with saline and 4% PFA. Arrows show bleeding. Asterisks show leakage of Evans blue. R, right side (tMCAO side).\nTo determine the role of PDPN in astrocytes in protecting vascular integrity in the adult brain after injury, the inventor has have established a transient middle cerebral artery occlusion (tMCAO)-induced ischemia/reperfusion model that is widely accepted as a model for secondary hemorrhage in human patients with ischemic stroke (Fan et al., 2010). […] In addition, he will include Magnetic Resonance Imaging (MRI) to detect early hemorrhage, monitor its progress, and quantify bleeding volume (every 10 h). […]\nThe S1P receptor S1P1 is highly expressed on vascular endothelial cells (Kono et al., 2004). […] Cerebral vascular permeability/edema will be detected by intravenous injection of Evans blue and the wet/dry ratio of the brains. Vascular integrity will be analyzed by confocal imaging and/or TEM as described in C1.3.3. […]", "note": "“Also recorded” adds a separate entry of the source."}
{"smiles": "FC(F)(F)c1cccc(-c2noc(-c3cc(-c4ccccc4)c(C(F)(F)F)s3)n2)c1", "note": "[SEW2871]", "values": [{"measurement": "vascular leakage", "setting": "Evans blue", "result": "ameliorated"}, {"measurement": "brain bleeding", "setting": "100 mg/kg", "result": "ameliorated; also recorded: ameliorates brain bleeding"}]}
